Legend:
ERK1/2 = assay: Immunoblot of phospho-ERK1/2 in MM.1 S cells; type: cell-based; conditions: data not shown; for phospho-ERK1/2: dextrose-free media, ATP depletion, 90 minutes; for phosphorylation of ERK1/2: 4 hours
Procedure: (§1) 5×10^6 were cells treated with 10 μM 8-NH2-Ado for the indicated times and harvested. Cell pellets were washed with cold phosphate-buffered saline (PBS; 8.1 g NaCl, 1.14 g Na2HPO4, 0.22 g KCl, and 0.25 g/L KH2PO4) and incubated with lysis buffer (50 mM HEPES, 150 mM NaCl, 1.5 mM MgCl2, 1 mM EDTA pH 8.0, 100 mM NaFI, 10 mM Na Pyrophosphate, 500 μM PMSF, 0.5% Triton X-100, 10% glycerol) at 4° C. for one hour. Lysates were centrifuged at 4° C. for 1 minute at 9000×g, and the supernatants were collected and stored at −20° C. Protein concentration was determined by Bio-Rad protein assay (BioRad Laboratories, Hercules, Calif.). Protein, at a concentration of 30 μg, was mixed with sample buffer (125 mM Tris, pH 6.8, 4% SDS, 20% glycerol, 100 mM Dithiothreitol (DTT), and 0.05% bromophenol blue), and fractionated on a pre-cast 8-16% Tris-Glycine gel (Invitrogen/Novex, Carlsbad, Calif.). Proteins were then transferred to a Polyvinylidene Fluoride (PVDF) membrane (Immobilon-P, Millipore, Bedford, Mass.): Following protein transfer, membranes were blocked with 5% non-fat milk in PBS-T (PBS with 0.1% Tween), incubated with the primary antibody overnight at 4° C. and subsequently with horseradish peroxidase linked secondary antibody (Amersham, Arlington Heights, Ill.). Blots were developed using ECL Plus Chemiluminescent Western Blotting Detection reagent (Amersham, Arlington Heights, Ill.) and the signal was visualized with X-ray film (Hyperfilm, Amersham, Arlington Heights, Ill.). For reprobing purposes, blots were stripped using Restore Western Blot Stripping Buffer from Pierce Biotechnology (Rockford, Ill.). Phospho-MKK3/6 (Ser189/207), phospho-p38 (Thr180/Tyr182), phospho-ATF-2 (Thr69/71), phospho-c-Raf (Ser259), phospho-MEK1/2 (Ser217/221), total MEK1/2, phospho-ERK1/2 (Thr202/Tyr204), total ERK1/2, phospho-p90RSK (Ser380), total RSK, phospho-PDK1 (Ser241), total PDKI, phospho-PTEN (Ser380), total PTEN, phospho-Akt (Ser473), total Akt, phospho-GSK-3β (Ser9), total GSK-3β, phospho-FKHRLI (Thr32)/-FKHR (Thr24), phospho-FKHR (Ser256) primary antibodies were obtained from Cell Signaling Technology (Beverly, Mass.). Total MKK3, total MKK6, total p38, total ATF-2, total c-Raf, total FKHR, total FKHRLI, phospho-JNK and total JNK were purchased from Santa Cruz Biotechnology (Santa Cruz, Calif.). Caspase 3, caspase 9, and PARP antibodies were obtained from Pharmingen (San Diego, Calif.) and anti-MKP1 from Upstate (Lake Placid, N.Y.). Anti-caspase 8 mouse serum was a generous gift of Dr. Marcus Peter (University of Chicago).
(§2) MM.1 S cells were exposed to 10 μM 8-NH2-Ado for 0, 0.5, 1, 2, 4 and 6 hours, after which cells were lysed as previously (Example 2). 30 μg of protein was separated by gel electrophoresis, transferred to PVDF membrane, and probed with phosphorylation-specific antibodies to MKK3/6, p38 MAPK, ATF-2, MEK1/2, ERK1/2, p90RSK, JNK1, PDK1, Akt, FKHRL1 and GSK-3β.
(§3) MM. I S cells were treated with 10 μM 8-chloro-adenosine for 0, 0.5, 1, 2, 4 or 6 hours or 10 μM of cytarabine, fludarabine, gemcitabine or 8-amino-adenosine for 4 hours. Cells were lysed as previously described and 30 μg of protein was separated by gel electrophoresis, transferred to PVDF membrane, and probed with phospho-p38 MAPK (Thr180/Tyr182) antibody.
(§4) MM.1 S cells were grown in dextrose-free media and treated with 2 μM Antimycin A, 5 mM 2-DOG, and varying concentrations of dextrose for 90 minutes. Cellular ATP levels were determined using triplicate samples in a luciferase based assay and are expressed here as a percentage of untreated control.

Akt kinase = assay: Immunoblot of phospho-Akt in MM.1 S cells; type: cell-based; conditions: data not shown; for phospho-Akt: dextrose-free media, ATP depletion, 90 minutes; for phosphorylation of Akt: 4 hours
Procedure: as §1, §2, §3, §4

p38 MAPK = assay: Immunoblot of phospho-p38 MAPK in MM.1 S cells; type: cell-based
Procedure: as §1
as §2, with “GSK-3β. […] FIGS. 1A, 1B, 1C and 1D provide the results of the blots.” for “GSK-3β.”
as §3
In a parallel approach to test the involvement of cellular phosphatases, we treated MM.1 S cells with varying concentrations of the phosphatase inhibitor okadaic acid in combination with 8-NH2-Ado for 4 hours to assess whether the serine/threonine phosphatases PP2A and PPI are involved.

MM cells [1] = conditions: cited from earlier work
MM cells [2] = conditions: MM cells, previously shown; cited from earlier work

O=CC[C@@H](O)[C@H](O)[C@H](O)CO [2-DOG, 2-deoxy-D-glucose]
phospho-ERK1/2 (ERK1/2): did not reveal a decrease in phosphorylation | phospho-Akt (Akt kinase): did not reveal a decrease in phosphorylation

Nc1ncnc2c1nc(Cl)n2[C@@H]1O[C@H](CO)[C@@H](O)[C@H]1O [8-chloro-adenosine]
phosphorylation status of p38 (p38 MAPK; 10 μM, time course 0-6 hours): does not reveal any effect | phosphorylation status of ERK1/2 (ERK1/2; 10 μM, time course 0-6 hours): does not reveal any effect | phosphorylation status of Akt kinase (Akt kinase; 10 μM, time course 0-6 hours): does not reveal any effect | apoptosis (MM cells [1]): induces apoptosis

Nc1nc(F)nc2c1ncn2[C@@H]1O[C@H](CO)[C@@H](O)[C@@H]1O [Fludarabine]
cytotoxicity (MM cells [2]): cytotoxic

Nc1ccn([C@@H]2O[C@H](CO)[C@@H](O)[C@@H]2O)c(=O)n1 [cytarabine]
phosphorylation of p38 (p38 MAPK; 10 μM, 4 hours): do not cause a decrease | phosphorylation of ERK1/2 (ERK1/2; 10 μM): do not cause a decrease | phosphorylation of Akt (Akt kinase; 10 μM): do not cause a decrease | cytotoxicity (MM cells [2]): cytotoxic

Nc1ccn([C@@H]2O[C@H](CO)[C@@H](O)C2(F)F)c(=O)n1 [gemcitabine]
phosphorylation of p38 (p38 MAPK; 10 μM, 4 hours): do not cause a decrease | phosphorylation of ERK1/2 (ERK1/2; 10 μM): do not cause a decrease | phosphorylation of Akt (Akt kinase; 10 μM): do not cause a decrease | cytotoxicity (MM cells [2]): cytotoxic

C=C1[C@@H](O)[C@@H]2O[C@]3(CC[C@H](/C=C/[C@@H](C)[C@@H]4CC(C)=C[C@@]5(O[C@H](C[C@@](C)(O)C(=O)O)CC[C@H]5O)O4)O3)CC[C@H]2O[C@@H]1[C@@H](O)C[C@H](C)[C@H]1O[C@@]2(CCCCO2)CC[C@H]1C [okadaic acid]
phospho-p38 in the presence of 8-NH2-Ado (p38 MAPK; 30 nM okadaic acid in combination with 8-NH2-Ado, 4 hours): partial recovery of phosphorylation | phospho-p38 levels (p38 MAPK; 30 nM okadaic acid with 10 μM 8-NH2-Ado, at 6 hours): still present | 8-NH2-Ado-induced loss of p38 phosphorylation (p38 MAPK; 30 nM okadaic acid with 10 μM 8-NH2-Ado, time course): significantly delays

Antimycin A
phospho-ERK1/2 (ERK1/2): did not reveal a decrease in phosphorylation | phospho-Akt (Akt kinase): did not reveal a decrease in phosphorylation

Source: patent US20090082304A1, “Methods of Treating Hematological Malignancies with Nucleoside Analog Drugs” (NORTHWESTERN UNIVERSITY, priority 2004, published 2009)
